Results published in US20240165188A1, “Method for the treatment of microbial overgrowth, imbalance and infections” (TRINUTRA LTD., priority 2021, published 2024).

Test system: C. albicans (Robin) Berkhout (ATCC catalogue no. 96901), fluconazole resistant
Assay: Disc diffusion assay, inhibition of Candida albicans growth on agar
Assay type: cell-based
Details: C. albicans fluconazole-resistant strain; undiluted (100%); 24 hours; FIG. 2
Experimental: A frozen stock of C. albicans (Robin) Berkhout (ATCC catalogue no. 96901) was thawed and incubated at 25 degrees Celsius for 72 hours in 200 YM medium. Following dilution 1:10, the culture was incubated for a further 24 hours. Following further dilution (1:10), the culture is grown for an additional 3 hours prior to use.
Antibiotic assay discs (Whatman discs, supplied by Sigma-Aldrich) were prepared in advance by means of saturating them with the test solutions and controls.
Agar plates were prepared and labelled as described in Example 1, above. The plates were then incubated at 25° C. and the area of inhibited fungal growth was measured and photographed after 24 hours.
• 1. Black seed oil 3% thymoquinone (TQ), 2% FFA. • 2. Black seed oil 3% thymoquinone (TQ), 10% FFA. • 3. Black seed oil 0.5% thymoquinone (TQ), 2% FFA. • 4. Black seed oil 0.5% thymoquinone (TQ), 10% FFA. • 5. Black seed oil 1.8% thymoquinone (TQ), 2% FFA formulation
• 6. Negative control (empty discs) • 7. Positive control I (0.05% zinc pyrithione). • 8. Positive control II (100 micrograms fluconazole)
All concentrations given above are w/w concentrations. The various black seed oil preparations were cold-pressed Nigella sativa oils obtained from NS Oils Ltd. (Kibbutz Sa'ad, Israel).
Each of the 5 test substances (at a concentration of 100%, i.e., undiluted) was assayed for antifungal activity, as described above.

With OC(Cn1cncn1)(Cn1cncn1)c1ccc(F)cc1F [fluconazole] as the compound, how does the “size of the fungal inhibition zones (antifungal effect)” value read?
Its value is “lack of inhibitory activity”.
